The values below are quoted from earlier work in US12247053B2 (priority 2018, dated 2025).

This data set relates to American isolates of H3N2.

`NC12CC3CC(CC(C3)C1)C2` [amantadine]: the measured resistance is on record as 91%. With `CC(N)C12CC3CC(CC(C3)C1)C2` (centres unmarked) [rimantadine], the measured resistance is recorded as 91%.
